Results taken from patent US20180354921A1, “SUBSTITUTED OXADIAZOLES FOR COMBATING PHYTOPATHOGENIC FUNGI” (BASF SE, priority 2015, published 2018).

O=C(Cc1ccccc1)Nc1ccc(-c2noc(C(F)(F)F)n2)cc1 [Ex-1, 2-phenyl-N-[4-[5-(trifluoromethyl)-1,2,4-oxadiazol-3-yl]phenyl]acetamide]
melting point: 198 °C
